In PMC5365060, “Construction of an octosyl acid backbone catalyzed by a radical S-adenosylmethionine enzyme and a phosphatase in the biosynthesis of high-carbon sugar nucleoside antibiotics” (Chemical Science, 2016):

Target: T1, PolH (Streptomyces aureochromogenes, UniProt J7G018)
T1 construct: pET28a, N-terminal His6 tag, E. coli; anaerobically purified, reconstituted [4Fe-4S]; motif C225XXXC229XXC232
Assay: HPLC time course of OAP and […]'-deoxyadenosine
Assay type: biochemical
Conditions: 3'-EUMP, sodium dithionite, anaerobic; SAM consumed as co-substrate

T1 sequence (J7G018 entry or part of it): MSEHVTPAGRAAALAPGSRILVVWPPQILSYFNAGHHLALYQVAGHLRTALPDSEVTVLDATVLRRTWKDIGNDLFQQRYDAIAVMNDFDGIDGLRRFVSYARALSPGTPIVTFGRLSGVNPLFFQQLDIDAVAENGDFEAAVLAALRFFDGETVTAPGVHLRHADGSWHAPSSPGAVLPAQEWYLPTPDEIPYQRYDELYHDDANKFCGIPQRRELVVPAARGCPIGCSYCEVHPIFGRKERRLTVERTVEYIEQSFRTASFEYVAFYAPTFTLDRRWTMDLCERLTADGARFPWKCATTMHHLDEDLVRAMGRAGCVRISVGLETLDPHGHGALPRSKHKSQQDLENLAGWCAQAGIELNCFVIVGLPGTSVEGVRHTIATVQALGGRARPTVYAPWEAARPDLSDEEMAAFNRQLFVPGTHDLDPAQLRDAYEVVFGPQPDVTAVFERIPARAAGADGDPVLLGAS

## C[S+](CC[C@H](N)C(=O)O)C[C@H]1O[C@@H](n2cnc3c(N)ncnc32)[C@H](O)[C@@H]1O (stereo partly shown) [SAM]
  HPLC time course of OAP and 5'-deoxyadenosine: indicating that SAM was being used as a co-substrate
